# Earlier results, collected in patent US7790164B2, “Fragments of antibodies to epidermal growth factor receptor and methods of their use” (Van Andel Research Institute, priority 2007, dated 2010).
# Test system: A431 cells
# Details: Ojima et al. J Med Chem 2002, read-out: IC50 of A431 to paclitaxel; cited from earlier work
compound,measurement,value
CC(=O)O[C@H]1C(=O)[C@@]2(C)[C@H]([C@H](OC(=O)c3ccccc3)[C@]3(O)C[C@H](OC(=O)[C@H](O)[C@@H](NC(=O)c4ccccc4)c4ccccc4)C(C)=C1C3(C)C)[C@]1(OC(C)=O)CO[C@@H]1C[C@@H]2O [paclitaxel],IC50,~0.09 nM
